This is an account of results in US5750530A, “Pharmaceutical diketopiperazine compounds” (Xenova Limited, priority 1994, dated 1998).

Structures can show the parent of a compound that is named as a salt. A value given as a limit tells only on which side of the number the result lay.

In this experiment the target is PAI-1 (Homo sapiens, UniProt P05121). Nature of the experiment: biochemical. It counts as biochemical. Conditions: for IC50: PAI chromogenic substrate assay. Put shortly:
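Compound preincubated with PAI-1 before addition to a tPA system; residual tPA converts plasminogen to plasmin, which cleaves chromogenic substrate S2251. Released p-nitroaniline read at 405 nm; values given as % inhibition at set concentrations or IC50.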

Sequence of PAI-1 (P05121 24-402): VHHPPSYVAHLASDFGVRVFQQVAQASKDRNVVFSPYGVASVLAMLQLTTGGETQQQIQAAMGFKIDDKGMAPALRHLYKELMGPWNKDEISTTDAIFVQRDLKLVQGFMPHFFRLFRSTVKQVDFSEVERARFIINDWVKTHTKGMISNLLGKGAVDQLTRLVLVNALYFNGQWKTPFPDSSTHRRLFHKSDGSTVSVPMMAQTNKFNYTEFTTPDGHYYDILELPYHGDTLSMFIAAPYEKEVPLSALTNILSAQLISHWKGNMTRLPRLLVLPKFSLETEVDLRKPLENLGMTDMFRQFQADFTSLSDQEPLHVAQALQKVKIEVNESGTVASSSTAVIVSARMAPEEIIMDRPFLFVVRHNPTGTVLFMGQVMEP

With `Cc1cccc(/C=c2\[nH]c(=O)/c(=C/c3ccc(SCCN(C)C)cc3)[nH]c2=O)c1` [Compound 5439.HCl, (3Z,6Z)-6-(4-(2-Dimethylaminoethylthio)benzylidene)-3-(3-methylbenzylidene)-2,5-piperazinedione], the IC50 worked out at 17 µM. Also, the “% Inhibition” value (5 μm) turned out to be 6%. Also, the “% Inhibition” value (20 μm) stood at 35%.

As for `CN(C)CCSc1ccc(/C=c2\[nH]c(=O)/c(=C/c3cccnc3)[nH]c2=O)s1` [Compound 5470, (3Z,6Z)-6-(5-(2-Dimethylaminoethylthio)-2-thienyl)methylene-3-(3-pyridylmethylene)-2,5-piperazinedione], the “% Inhibition” value is 1% (5 μm) and 0% (20 μm).

With `COc1cccc(/C=c2\[nH]c(=O)/c(=C/c3ccc(SCCN(C)C)cc3)[nH]c2=O)c1` [Compound 5438.HCl, (3Z,6Z)-6-(4-(2-Dimethylaminoethylthio)benzylidene)-3-(3-methoxybenzylidene)-2,5-piperazinedione], for the setting “5 μm”, the “% Inhibition” value is recorded as 3%.

In the case of `CN(C)CCSc1ccc(/C=c2\[nH]c(=O)/c(=C/c3ccccn3)[nH]c2=O)s1` [Compound 5471.HCl, (3Z,6Z)-6-(5-(2-Dimethylaminoethylthio)-2-thienyl)methylene-3-(2-pyridylmethylene)-2,5-piperazinedione], the “% Inhibition” value stood at 1% (5 μm) and 2% (20 μm).

On to `CN(C)CCSc1ccc(/C=c2\[nH]c(=O)/c(=C/CC(C)(C)C)[nH]c2=O)s1` [Compound 5502, (3Z,6Z)-3-(5-(2-Dimethylaminoethylthio)-2-thienyl)methylene-6-(3,3-dimethyl-1-butylidene)-2,5-piperazinedione], for which the IC50 was more than 20 µM. Further, the “% Inhibition” value (5 μm) is 0%. In addition, the “% Inhibition” value (20 μm) turned out to be 12%.

For the compound `CN(C)CCSc1ccc(/C=c2\[nH]c(=O)/c(=C/c3ccccc3)[nH]c2=O)s1` [Compound 5131.HCl, (3Z,6Z)-6-Benzylidene-3-(5-(2-dimethylaminoethylthio)-2-thienyl)methylene-2,5-piperazinedione], it took 5 µM to reach half-maximal inhibition (IC50). Further, the “% Inhibition” value (20 μm) was 65%. Under “100 μm”, the “% Inhibition” value was 56%.

Regarding `CN(C)CCSc1ccc(/C=c2\[nH]c(=O)/c(=C/c3cccc(Br)c3)[nH]c2=O)cc1` [Compound 5425.HCl, (3Z,6Z)-3-(3-Bromobenzylidene)-6-(4-(2-dimethylaminoethylthio)benzylidene)-2,5-piperazinedione], inhibition was half-maximal at 2.2 µM (IC50). Where the note is “5 μm”, the “% Inhibition” value worked out at 56%. Under “20 μm”, the “% Inhibition” value is 47%.

For the compound `CN(C)CCSc1ccc(/C=c2\[nH]c(=O)/c(=C/c3cccc(Cl)c3)[nH]c2=O)cc1` [Compound 5292.HCl, (3Z,6Z)-3-(3-Chlorobenzylidene)-6-(4-(2-dimethylaminoethylthio)benzylidene)-2,5-piperazinedione], half-maximal inhibition (IC50) was put at 2 µM.

Take `CN(C)CCSc1ccc(/C=c2\[nH]c(=O)/c(=C/c3cn(C)c4ccccc34)[nH]c2=O)s1` [Compound 5473.HCl, (3Z,6Z)-6-(5-(2-Dimethylaminoethylthio)-2-thienyl)methylene-3-(1-methyl-3-indolyl)methylene-2,5-piperazinedione]: the IC50 turned out to be 20 µM. In addition, the “% Inhibition” value (5 μm) was found to be 10%. Moreover, the “% Inhibition” value (20 μm) is recorded as 54%.

For the compound `CN(C)CC[S+]([O-])c1ccc(/C=c2\[nH]c(=O)/c(=C/c3ccccc3)[nH]c2=O)cc1` (centres unmarked) [Compound 5141.HCl, (3Z,6Z)-6-Benzylidene-3-(4-(2-dimethylaminoethylsulphinyl)benzylidene)-2,5-piperazinedione], the “% Inhibition” value reads like this: (5 μm) 0%; (20 μm) 6%; (100 μm) 34%.

Consider `COc1ccc(/C=c2\[nH]c(=O)/c(=C/c3ccc(SCCN(C)C)s3)[nH]c2=O)cc1` [Compound 5464, (3Z,6Z)-3-(5-(2-Dimethylaminoethylthio)-2-thienyl)methylene-6-(4-methoxybenzylidene)-2,5-piperazinedione], for which the IC50 is 10.5 µM. The “% Inhibition” value (5 μm) stood at 19%. Under “20 μm”, the “% Inhibition” value worked out at 58%.

Take `CN(C)CCSc1ccc(/C=c2\[nH]c(=O)/c(=C/c3ccccc3Br)[nH]c2=O)s1` [Compound 5313, (3Z,6Z)-6-(2-Bromobenzylidene)-3-(5-(2-dimethylaminoethylthio)-2-thienyl)methylene-2,5-piperazinedione]: under “20 μm”, the “% Inhibition” value is 10%.

Consider `CN(C)CCSc1ccc(/C=c2\[nH]c(=O)/c(=C/c3cccc(OCc4ccccc4)c3)[nH]c2=O)cc1` [Compound 5486.HCl, (3Z,6Z)-3-(3-Benzyloxybenzylidene)-6-(4-(2-dimethylaminoethylthio)benzylidene)-2,5-piperazinedione], for which the “% Inhibition” value came to 4% (5 μm) and 49% (20 μm).

Take `CN(C)CCSc1ccc(/C=c2\[nH]c(=O)/c(=C/c3cccc([N+](=O)[O-])c3)[nH]c2=O)s1` [Compound 5316, (3Z,6Z)-3-(5-(2-Dimethylaminoethylthio)-2-thienyl)methylene-6-(3-nitrobenzylidene)-2,5-piperazinedione]: the “% Inhibition” value (20 μm) is 10%.

In turn, `COC(=O)c1ccc(/C=c2\[nH]c(=O)/c(=C/c3ccc(SCCN(C)C)cc3)[nH]c2=O)cc1` [Compound 5478.HCl, (3Z,6Z)-3-(4-(2-Dimethylaminoethylthio)benzylidene)-6-(4-methoxycarbonylbenzylidene)-2,5-piperazinedione] came in with an IC50 of 16.9 µM. Also, the “% Inhibition” value (5 μm) was determined as 3%. The “% Inhibition” value (20 μm) was 60%.

In the case of `CN(C)CCSc1ccc(/C=c2\[nH]c(=O)/c(=C/c3cccc([N+](=O)[O-])c3)[nH]c2=O)cc1` [Compound 5422.HCl, (3Z,6Z)-6-(4-(2-Dimethylaminoethylthio)benzylidene)-3-(3-nitrobenzylidene)-2,5-piperazinedione], the “% Inhibition” value is, setting by setting: (5 μm) 5%; (20 μm) 28%.

Compound `CN(C)CCSc1ccc(/C=c2\[nH]c(=O)/c(=C/C3CCCCC3)[nH]c2=O)s1` [Compound 5454.HCl, (3Z,6Z)-6-Cyclohexylmethylene-3-(5-(2-dimethylaminoethylthio)-2-thienyl)methylene-2,5-piperazinedione] gave a half-maximal inhibitory concentration (IC50) of 5.3 µM. In addition, under “5 μm”, the “% Inhibition” value was 25%. Where the note is “20 μm”, the “% Inhibition” value is recorded as 69%.

`CN(C)CCSc1ccc(/C=c2\[nH]c(=O)/c(=C/c3ccc4ccccc4n3)[nH]c2=O)s1` [Compound 5308, (3Z,6Z)-6-(5-(2-Dimethylaminoethylthio)-2-thienyl)methylene-3-(2-quinolylmethylene)-2,5-piperazinedione] registered an IC50 of 4.7 µM. Also, where the note is “20 μm”, the “% Inhibition” value was 81%. Moreover, the “% Inhibition” value (100 μm) was found to be 80%.

For the compound `CC(C)N(CCSc1ccc(/C=c2\[nH]c(=O)/c(=C/c3ccccc3)[nH]c2=O)s1)C(C)C` [Compound 5399.HCl, (3Z,6Z)-6-Benzylidene-3-(5-(2-diisopropylaminoethylthio)-2-thienyl)methylene-2,5-piperazinedione], the “% Inhibition” value runs as follows: (5 μm) 18%; (20 μm) 31%.

By % Inhibition is commonly meant the percentage by which the read-out fell short of the control. Read a high % Inhibition as strong suppression. By IC50 is commonly meant the concentration that inhibits the measured activity by half. Read a low IC50 as inhibition by little substance.
